Source: patent US6380168B1, “Method for promoting hair growth” (Nomura Co., Ltd., priority 1992, dated 2002)
Where “and” joins values, the source holds several entries; their conditions need not be identical. Equal entries are not always repeated. Values belong to the compound of their own block, whether it stands above or below them.

Tests used:
tyrosinase = assay: Tyrosinase inhibition (L-Dopa, dopachrome absorbance at 475 nm, procedure of Manson and Peterson); type: biochemical, mushroom
Protocol: This experiment was conducted according to the procedure of Manson and Peterson. A 0.5 ml L-Dopa solution (0.03% in pH6.8 PBS) was added to 0.5 ml of a test liquid, and incubated for 5 minutes at 25° C. After which, a 0.5 ml of tyrosinase solution (obtained from a mushroom) was added and the mixture was further incubated for 5 minutes at 25° C. […] Kojic acid was used for a positive control test.

[1] = Skin blood flow in rats after topical application, measured with a Laser Doppler Flowmeter; type: in vivo, Wistar male rats; conditions: rat, measured after 20 minutes
Protocol: Wistar male rats (180 to 200 g weights) were employed as experimental animals. The quantity of the skin blood in this experiment was measured with a Laser Doppler Flowmeter (PF2B, Perimed). The backs of rats were sheared. A day later, the rats were anesthetisized with urethane (1 g/Kg) and a quantity of blood flow was measured. This quantity was defined as a normal flow.
Immediately after the measurement of the normal flow, a group of rats were treated with topical application of 25 μl of test liquid in 50% ethanol solution and a group of rats were treated with topical application of 50% ethanol solution as a control. The skin blood flow was measured at 20 minute, 40 minute and 60 minute intervals. MeOH extract from Calanthe discolor Lindl. (CDM-ext: 0.5% and 2.0%), Calanthoside A (0-20%), and indilbin (0.2%) were tested, and the results for the extract are shown in Table 1.
The ability of Calanthoside B to increase skin blood flow can be used to promote hair growth.

SMILES: OCC1O[C@@H](OCC2O[C@@H](Oc3c[nH]c4ccccc34)C(O)C(O)[C@@H]2O)C(O)C(O)[C@@H]1O (stereo partly drawn) [Calanthoside A, 3-O-β-D-glucopyranosyl (1-6)-β-D-glucopyranosylindole]
% Inhibition (tyrosinase; concentration 50 μg/ml): 38.6%
% Inhibition (tyrosinase; concentration 200 μg/ml): 65.9%
skin blood flow (result in words) ([1]; Calanthoside A (0-20%)): increases skin blood flow

% Inhibition (tyrosinase; concentration 5 (μM)): 32.5% and 28.2% and 23.9%
% Inhibition (tyrosinase; concentration 20 (μM)): 66.0% and 62.2% and 59.3%
% Inhibition (tyrosinase; concentration 50 (μM)): 82.7% and 80.3% and 78.6%
anti-tyrosinase activity (result in words) (tyrosinase; summary of Table 2): strong anti-tyrosinase activity
SMILES: O=c1cc(CO)occ1O [Kojic Acid, Kojic acid]

SMILES: OCC1O[C@@H](Oc2c(S[C@@H]3OC(CO)[C@@H](O)C(O)C3O)[nH]c3ccccc23)C(O)C(O)[C@@H]1O (stereo partly drawn) [Calanthoside B, 2-S-β-D-glucopyranosyl-3-O-β-D-glucopyrannosyl-2-mercaptoindole]
skin blood flow (result in words) ([1]; 0.2%): increases skin blood flow
